Laboratory results: ChEMBL document CHEMBL1201862, “PubChem BioAssay data set” (2004)
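Protocol summary: plate cells (96-well), add compound at 5 concentrations, incubate 48 h, interpolate endpoints linearly. Here, GI50 denotes the concentration required for 50% inhibition of growth.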 Calls of active or inactive are those of the source. Rule as the data show it: active = GI50 up to about 1.1 µM and inactive = higher. Where a SMILES comes first, the peptide text is derived from it. [ ]: non-standard residue; d: D form. The star is where a group is joined. ξ: configuration not given here. ξD = NC(CC(=O)O)C(=O)O; Boc = CC(C)(C)OC(=O)*; Aib = CC(C)(N)C(=O)O; OBn = c1ccc(CO*)cc1

Experiments:
Assay in all cases: NCI tumour cell line growth inhibition, 48 h
[1] = test system: HCC 2998
[2] = test system: U-251
[3] = test system: ACHN
[4] = test system: EKVX
[5] = test system: CCRF-CEM
[6] = test system: MDA-MB-231
[7] = test system: SNB-19
[8] = test system: NCI/ADR-RES
[9] = test system: HCT-116
[10] = test system: HOP-92
[11] = test system: KM12
[12] = test system: NCI-H522
[13] = test system: RPMI-8226
[14] = test system: NCI-H226
[15] = test system: OVCAR-4
[16] = test system: COLO 205
[17] = test system: MCF7
[18] = test system: OVCAR-3
[19] = test system: UO-31

Measured: GI50

Cc1ccc(-c2c(C#N)c(-c3ccc(C)cc3)n(NS(=O)(=O)c3ccccc3)c(=O)c2C#N)cc1
inactive: [1] 25.2 µM | [2] 49.9 µM | [3] 37.5 µM | [4] 56.6 µM | [5] 24.4 µM | [6] > 100 µM | [7] 42.1 µM | [8] 50.5 µM | [9] 31.1 µM | [10] 28.6 µM | [11] 56.5 µM | [12] 50.1 µM | [13] 14.7 µM | [14] > 100 µM | [15] 40.6 µM | [16] 89.5 µM | [17] 24 µM

CC(C)(C)OC(=O)NC(CC(=O)OCc1ccccc1)C(=O)NC(C)(C)C(N)=O (centres undefined) (Boc-[ξD](OBn)-[Aib]-NH2)
inactive: [2] > 100 µM | [3] > 100 µM | [4] > 100 µM | [5] > 100 µM | [6] > 100 µM | [18] > 100 µM | [7] > 100 µM | [8] > 100 µM | [9] > 100 µM | [10] > 100 µM | [11] > 100 µM | [12] > 100 µM | [13] > 100 µM | [14] > 100 µM | [15] > 100 µM | [16] > 100 µM | [17] > 100 µM | [19] > 100 µM

COCOc1cc(OC)ccc1C/C(=N/O)C(=O)OC
inactive: [1] > 100 µM | [2] > 100 µM | [3] > 100 µM | [4] > 100 µM | [5] > 100 µM | [6] > 100 µM | [18] > 100 µM | [7] > 100 µM | [8] > 100 µM | [9] > 100 µM | [11] > 100 µM | [12] > 100 µM | [14] > 100 µM | [15] > 100 µM | [16] > 100 µM | [17] > 100 µM | [19] > 100 µM

COC(=O)C(Cc1ccc(Oc2cc(CC(NC(=O)c3ccccc3)C(=O)OC)ccc2OC)cc1)NC(=O)c1ccccc1 (centres undefined)
inactive: [1] 13.5 µM | [2] 32.8 µM | [3] 6.82 µM | [4] 29.8 µM | [6] 21.9 µM | [18] 24.7 µM | [7] 35.5 µM | [8] 35.2 µM | [9] 30.3 µM | [10] 21.6 µM | [11] 37.5 µM | [12] 7.29 µM | [13] 3.03 µM | [14] 27.5 µM | [15] 26.4 µM | [16] 27 µM | [17] 16.6 µM | [19] 9.59 µM

COc1ccc(NC(=O)/C(=N\NC(=O)C[n+]2ccccc2)c2c(O)c3ccc(O)cc3oc2=O)c([N+](=O)[O-])c1
inactive: [1] > 100 µM | [2] > 100 µM | [3] > 100 µM | [4] > 100 µM | [5] > 100 µM | [6] > 100 µM | [18] > 100 µM | [7] > 100 µM | [8] > 100 µM | [9] > 100 µM | [10] 32.3 µM | [11] 40.1 µM | [12] > 100 µM | [13] > 100 µM | [14] > 100 µM | [15] > 100 µM | [16] > 100 µM | [17] > 100 µM | [19] > 100 µM

O=C(CCc1ccccc1)On1c(-c2ccccc2)nc2ccccc2c1=S
inactive: [1] 4.52 µM | [2] 4.38 µM | [3] 5.69 µM | [4] 6.78 µM | [5] 1.77 µM | [6] 51.5 µM | [18] 4.99 µM | [7] 14.8 µM | [8] 4.08 µM | [9] 2.01 µM | [10] 42.7 µM | [11] 3.87 µM | [13] 7.28 µM | [14] 5.62 µM | [15] 2.9 µM | [16] 4.28 µM | [17] 4.54 µM | [19] 3.66 µM

CCOC(=O)/C=C(/C(=O)OCC)n1c(=O)c(C)cn(C2CC(N=[N+]=[N-])C(CO)O2)c1=O (centres undefined)
inactive: [1] 16.4 µM | [2] 18 µM | [3] 32.9 µM | [4] 28.1 µM | [6] 20.7 µM | [18] 19.5 µM | [7] > 100 µM | [8] > 100 µM | [9] 37.2 µM | [10] 30.8 µM | [11] 50.1 µM | [12] 20.7 µM | [13] 17.4 µM | [14] 45.4 µM | [15] 32.6 µM | [16] 14.5 µM | [17] 19.8 µM | [19] 46.6 µM

O=C(O)/C(=C\c1ccccc1)Cc1ccccc1
inactive: [1] > 100 µM | [2] > 100 µM | [3] > 100 µM | [4] > 100 µM | [5] > 100 µM | [6] > 100 µM | [18] > 100 µM | [7] > 100 µM | [8] > 100 µM | [9] > 100 µM | [10] > 100 µM | [11] > 100 µM | [12] > 100 µM | [13] > 100 µM | [14] > 100 µM | [15] > 100 µM | [16] > 100 µM | [17] > 100 µM | [19] > 100 µM
